Experimental findings from ChEMBL document CHEMBL3868623, “Difluorocyclobutylacetylenes as positive allosteric modulators of mGluR5 with reduced bioactivation potential” (Bioorg Med Chem Lett, 2016) are described below.

A short description of series [1]: in vitro. The conditions noted are these: human, liver microsomes.
A short description of series [2]: in vitro. Conditions: mouse, liver microsomes. A general note: Microsomes from liver hold many membrane-bound enzymes, among them those of drug oxidation.

The term fraction remaining denotes the share of the starting amount still present when the sample was taken.

Structures are written as SMILES.

Turning to `O=C1N[C@H](c2cncc(C#Cc3ccccc3)c2)[C@@H](c2cccc(F)c2)O1`, the amount remaining at 10 min in “in vitro [1]” was found to be 76%; in the series “in vitro [2]”, 71%.
As for `O=C1N[C@H](c2cncc(C#C[C@H]3C[C@@H](O)C3)c2)[C@@H](c2cccc(F)c2)O1`, the figures for the fraction remaining at 10 min in “in vitro [1]” and in “in vitro [2]” were 100% and 51%, respectively.
Regarding `O=C1N[C@H](c2cncc(C#C[C@H]3C[C@@H](F)C3)c2)[C@@H](c2cccc(F)c2)O1`, the values for the amount remaining at 10 min in “in vitro [1]” and in “in vitro [2]” were 83% and 57%, respectively.
In the case of `O=C1N[C@H](c2cncc(C#CC3CC3)c2)[C@@H](c2cccc(F)c2)O1`, the results for the fraction remaining at 10 min in “in vitro [1]” and in the series “in vitro [2]” were 81% and 69%, respectively.
In the same order, the values of `O=C1N[C@H](c2cncc(C#C[C@H]3C[C@H](F)C3)c2)[C@@H](c2cccc(F)c2)O1` are 81% and 37%.
In the case of `O=C1N[C@H](c2cncc(C#CC3CC(F)(F)C3)c2)[C@@H](c2ccc(F)cc2F)O1`, the share remaining at 10 min in “in vitro [1]” came out at 100%; in “in vitro [2]”, 84%.
In the same order, the values of `O=C1N[C@H](c2cncc(C#CC3CCOC3)c2)[C@@H](c2cccc(F)c2)O1` (stereo not given in full) are 93% and 63%.
In the same order, the values of `C[C@]1(O)C[C@H](C#Cc2cncc([C@H]3NC(=O)O[C@@H]3c3cccc(F)c3)c2)C1` are 88% and 78%.
The matching figures for `C[C@]1(O)C[C@@H](C#Cc2cncc([C@H]3NC(=O)O[C@@H]3c3cccc(F)c3)c2)C1`: 95% and 81%.
For the molecule `O=C1N[C@H](c2cncc(C#C[C@H]3C[C@H](O)C3)c2)[C@@H](c2cccc(F)c2)O1`, the fraction remaining at 10 min is 100% in “in vitro [1]” and 74% in the series “in vitro [2]”.
